This is an account of results in US20030130636A1, “System for improving skin health of absorbent article wearers” (priority 2001, published 2003).

Where “and” joins values, the source holds several entries; their conditions need not be identical. Equal values may be shown once.

The test system of data set [1] is EPIDERM skin culture. Nature of the data set: MTT assay, viability of EPIDERM skin culture. It is filed as cell-based, human. The settings on record: 0.4% (w/v) in PBS + protease insult, relative to control+control. An excerpt:
The MTT dye is taken up by the cells. The reduction of the dye as a result of cellular metabolism can be used to measure the cytotoxicity of the test compositions. In order to confirm viability, inserts of the EPIDERM skin culture that have already been subjected to the test compositions and biological insults are removed from their media and are washed consecutively through immersion in three different beakers of PBS. Fresh PBS is used for each test composition or control being evaluated. The PBS is discarded onto paper towel. The EPIDERM skin culture inserts are then patted onto paper towel and placed into the wells of a 24 well plate containing 300 microliters of pre-warmed media. After all of the EPIDERM skin culture inserts are washed, they are transferred to new 24 well plates containing 300 microliters of the MTT reagent. […] The plates are incubated for 2-3 hours in a 37° C., 5% CO2 incubator. After incubation, the EPIDERM skin culture inserts are transferred to 24 well plates and are immersed in 2 milliliters of MTT extraction buffer. The extraction buffer extracts the MTT reagent from the cells. […] The optical density (OD) of the samples is measured at 570 nm using a spectrophotometer. […] This reading is subtracted from a background reading at 650 nm to improve data quality.
A general note: Tetrazolium assays rely on reduction of a dye to a coloured formazan, in cell work by metabolically active cells.

For data set [2], the system named is EPIDERM skin culture. Description: EPIDERM skin culture study: IL-1α response to fecal protease (trypsin-chymotrypsin) insult. The following applies: six hours, one value per set of experiments. It is filed as cell-based, human. The method, then:
In order to evaluate the efficacy of the skin care solutions of the invention, a human skin culture was selected to model the response of the human epidermis. EPIDERM skin culture is a cornified, air-interfaced human skin culture. EPIDERM skin culture has multiple layers of progressively differentiated keratinocytes resembling human epidermis. EPIDERM EPI-200 skin culture can be purchased from MatTek Corporation of Ashland, MA. Experiments using EPIDERM skin culture are conducted in six well plates. Each well contains one milliliter of pre-warmed media that is the same as the EPIDERM skin culture media. The plates are then incubated in a 37° C., 5% CO2 incubator for thirty minutes. […]
After application of the insult solution, the well plates are incubated for six hours in the 37° C., 5% CO2 incubator. […] The response of the EPIDERM skin culture to the test compositions/control and the insult solution is determined by measuring the amount of interleukin-1 alpha (hereinafter “IL-1α”). Interleukin-1 alpha can be quantified using an Interleukin-1 alpha Quantikine Kit available from R&D Systems of Minneapolis, Minnesota. Interleukin-1 alpha measurements are converted to Loges for each of the treatments and the averages for each treatment are calculated. […]
(Test composition+insult) result=the measured amount of IL-1α from treatment with a test composition+protease insult. […]

For the compound `O=C(O[C@@H]1Cc2c(O)cc(O)cc2O[C@@H]1c1cc(O)c(O)c(O)c1)c1cc(O)c(O)c(O)c1` [Epigallocatechin gallate], the “Viability (percentage)” value in the data set on EPIDERM skin culture [1] is 103% and 101% and 112%.

With `[Cl-].[Cl-].[Sr+2]` [Strontium Chloride], the “Mean Reduction of Interleukin-1 Alpha (percentage)” value was 0% (10) with EPIDERM skin culture [2] (1% in PBS) and 15% (10) in the data set with EPIDERM skin culture [2] (10% in PBS).
